Several values for one entry are separate records, joined by “and”; a condition that tells them apart may be missing. Equal values may be shown once.
Columns and labels:
GLUT-4 = assay: Western immunoblot for GLUT-4 protein level in C2C12 cells; type: cell-based, mouse
Method: The levels of Glut-4, activated AMPK and activated Akt were measured in mouse muscle cells C2C12 (from ATTC) and in primary culture of human skeletal muscle cells (Clonetics, Inc.) using Western immunoblotting. C2C12 cells were plated at 1.5×1-exp5 cells per mL/well (12-well plate) in standard cell culture medium (DMEM supplemented with 10% fetal bovine serum (FBS), 25 mM glucose, 20 mM Hepes, 4 mM glutamine and 2 mM sodium pyruvate. 48 hrs after the plating, medium was changed to differentiation medium (DMEM supplemented with 5 mM of glucose and 0.5% of FBS) for next 3-4 days to stimulate the formation of myotubes. Three hours before the treatment with selected agents, cells were washed with PBS and transferred to PBS supplemented with 5 mM of glucose.
Analysis of C2C12 cells for the level of activated AMPK, Akt and the level of GLUT-4 was performed in the same experimental system. The cells were treated for 30 minutes at 37° C. After the treatment, the cells were washed with ice-cold PBS and lysed with 80 μl of lysis buffer/well (M-PER buffer from Pierce supplemented with protease and phosphatase inhibitor mix (Calbiochem) for 10 minutes on ice. Next, the plates were transferred to −20° C. to improve the lysis of the cells. Next cells were sonicated for 5 minutes and lysate was transferred to Eppendorf tubes and centrifuged at 14,000 rpm for 10 minutes. Supernatants were collected in fresh Eppendorf tubes and kept on ice to measure the amount of total proteins. 3 μl of each lysate was used to measure the protein concentration using standard Bradford method (Biorad). Subsequently, 20 μg per sample of sample protein was used for Western analysis using NuPage 10% Bis/Tris gels (Invitrogen). After exposure of membranes to primary and secondary antibodies AMPK, AKT or Glut-4 was detected using ECL-Plus (Amersham) following producer's instruction. Chemilumiscent signals were detected by using ChemiDoc system from Biorad. Intensity of detected signals were analyzed and measured using Quantity One software (Biorad). Alternatively, the level of phosphorylated AMPK was detected using ECL kit from Amersham and short exposure to Kodak films.
Experimental setup: Cell Culture was followed by treatment with selected contemplated compounds, which was followed by cell lysis and western blot analysis for AMPK, Akt, GLUT4, total AMPK, and total Akt. Signals were acquired accordingly. Primary antibodies used in these studies are the following: Anti-phospho-AMPK (Thr172), mouse, rabbit IgG, from Cell Signaling, #2531; Anti-phospho-Akt (Ser473), mouse, rabbit IgG, Cell Signaling, #9271; Anti-Glut-4, mouse, rabbit IgG, Calbiochem, #400064; Anti-AMPK (total), mouse, rabbit IgG, Cell Signaling, #2532; Anti-Akt (total), mouse, rabbit IgG, Cell Signaling, #9272.
The effects of kinetin, N^2-Acetyl-Guanosine and N^2-Acetyl-Guanine on GLUT-4 protein level in C2C12 cells were investigated following the same experimental design as described for AMPK and AKT. Anti-Glut-4 antibody used in this study was from Calbiochem. […] Table 3 refers to multiple independent experiments where multiple identical concentrations for the same reagents are indicated.

activated AMPK = assay: Western immunoblot for activated (phospho-Thr172) AMPK in muscle cells; type: cell-based, mouse; conditions: for FOLD AMPK ACTIVATION (OVER CONTROL): cells treated 30 minutes at 37° C
How it was run: (§1)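 Differentiated myotubes of mouse C2C12 or primary human skeletal muscle, held 3 h in PBS with 5 mM glucose, then compound-treated 30 min at 37° C. Lysates (20 μg protein) immunoblotted with ECL-Plus chemiluminescence detection; signal intensities quantified, total AMPK and Akt also blotted.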

activated Akt = assay: Western immunoblot for activated (phospho-Ser473) Akt in muscle cells; type: cell-based, mouse; conditions: for FOLD AKT ACTIVATION (OVER CONTROL): cells treated 30 minutes at 37° C
How it was run: as §1

[1] = test system: rat epitrochlearis muscle; assay: Glucose uptake in rat epitrochlearis muscle; type: cell-based; design: unit not given here; conditions: 60 minute incubation at 37 C, 10 minute transport at 30 C
Method: Glucose uptake in rat epitrochlearis muscle was determined following a protocol substantially as described by Brozinick, J. T., and Birnbaum, M. J. (1998) J. Biol. Chem. 273(24), […]. Results are listed in Tables 5 and 6, wherein data of Table 5 were obtained for 60 minute incubations (at 37 C), 10 minute transport at (30 C) and data of Table 6 were obtained for 60 minute incubations (at 37 C), 10 minute transport at (30 C) of the compounds as indicated (K is kinetin, AG is N2-acetylguanine).

muscle cells = assay: Total glucose uptake in vitro with fluorescent glucose analog; type: cell-based; conditions: for AVERAGE (N = 3) fluorescence of fluorescent glucose in the cells / FOLD CHANGE IN TOTAL GLUCOSE UPTAKE (OVER CONTROL): 30 minutes at 37 C
Method: Total glucose uptake was measured using fluorescent glucose analog from Molecular Probes. Briefly, muscle cells were treated with kinetin, N^2-Acetyl-Guanosine and N^2-Acetyl-Guanine for 30 minutes at 37 C first and subsequently, these cells were exposed to 500 μM of fluorescent glucose analog for 5 minutes at room temperature. Next, cells were washed twice with cold Krebs-Hepes buffered solution and fixed in 70% ethanol in water. Fluorescence of fluorescent glucose in the cells was measured using fluorescent plate reader at 480/530 nm (excitation/emission). […] Table 4 refers to multiple independent experiments where multiple identical concentrations for the same reagents are indicated.

[2] = concentration 0.15 (unit not given)
[3] = concentration 0.3 (unit not given)
[4] = concentration 1.5 (unit not given)
[5] = concentration 3.75 (unit not given)
[6] = concentration 7.5 (unit not given)

CC(=O)Nc1nc2nc[nH]c2c(=O)[nH]1 [N^2-Acetyl-Guanine, N2-acetylguanine]
effect on GLUT-4 protein level (in words) (GLUT-4): potently increase GLUT-4 protein level | FOLD CHANGE IN GLUT-4 LEVEL (OVER CONTROL) (GLUT-4; 0.3 microM): 3.94 fold | FOLD CHANGE IN GLUT-4 LEVEL (OVER CONTROL) (GLUT-4; 1.5 microM): 3.84 fold | FOLD CHANGE IN GLUT-4 LEVEL (OVER CONTROL) (GLUT-4; 7.5 microM): 3.24 fold | FOLD CHANGE IN GLUT-4 LEVEL (OVER CONTROL) (GLUT-4; 37.5 microM): 2.80 fold | FOLD AMPK ACTIVATION (OVER CONTROL) (activated AMPK; 0.3 microM): 5.42 fold | FOLD AMPK ACTIVATION (OVER CONTROL) (activated AMPK; 1.5 microM): 5.85 fold | FOLD AMPK ACTIVATION (OVER CONTROL) (activated AMPK; 7.5 microM): 6.00 fold | FOLD AMPK ACTIVATION (OVER CONTROL) (activated AMPK; 37.5 microM): 6.51 fold | effect on AMPK activity (in words) (activated AMPK; no concentration stated): potent activators of AMPK | FOLD AKT ACTIVATION (OVER CONTROL) (activated Akt; 0.3 microM): 3.50 fold and 2.44 fold | FOLD AKT ACTIVATION (OVER CONTROL) (activated Akt; 7.5 microM): 2.58 fold and 1.95 fold | effect on Akt activity (in words) (activated Akt; no concentration stated): potent activators of AMPK as well as Akt | Glucose uptake, Mean ([1]; 0.1 uM): 1.12 | Glucose uptake, Mean ([1]; 0.4 uM): 1.43 | effect on glucose uptake in muscle cells in vitro (in words) (muscle cells): potently enhance glucose uptake in muscle cells in vitro | AVERAGE (N = 3) fluorescence of fluorescent glucose in the cells (muscle cells; [2]): 86.4 +/− 2.3 | FOLD CHANGE IN TOTAL GLUCOSE UPTAKE (OVER CONTROL) (muscle cells; [2]): 1.85 fold | AVERAGE (N = 3) fluorescence of fluorescent glucose in the cells (muscle cells; [3]): 54.5 +/− 1.7 | FOLD CHANGE IN TOTAL GLUCOSE UPTAKE (OVER CONTROL) (muscle cells; [3]): 2.68 fold | AVERAGE (N = 3) fluorescence of fluorescent glucose in the cells (muscle cells; [4]): 55.2 +/− 0.8 | FOLD CHANGE IN TOTAL GLUCOSE UPTAKE (OVER CONTROL) (muscle cells; [4]): 2.71 fold | AVERAGE (N = 3) fluorescence of fluorescent glucose in the cells (muscle cells; [5]): 115.9 +/− 3.7 | FOLD CHANGE IN TOTAL GLUCOSE UPTAKE (OVER CONTROL) (muscle cells; [5]): 2.48 fold | AVERAGE (N = 3) fluorescence of fluorescent glucose in the cells (muscle cells; [6]): 59.6 +/− 0.4 | FOLD CHANGE IN TOTAL GLUCOSE UPTAKE (OVER CONTROL) (muscle cells; [6]): 2.93 fold
